Experimental data: the supplement of paper PMC12325586

Test system: MIA PaCa-2
Procedure: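 MIA PaCa-2 Tet-on shOFD1 pancreatic cancer cells (2000 cells/well, 96-well) were treated with Selleck FDA-approved library compounds at 0, 1, 5, 10, 25 and 50 µM, with extra concentrations added where needed, for 72 h at 37 °C. Knockdown wells also received 100 ng/mL doxycycline; control wells received DMSO without doxycycline. Viability was read by CCK-8 absorbance at 450 nm and normalised to DMSO control wells. IC50 was fitted in GraphPad Prism as a 4-parameter logistic with bottom fixed at 0 and top fixed at 1; at least 3 technical replicate wells per condition.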

[1] = OFD1 knockdown: no (no doxycycline)
[2] = OFD1 knockdown: yes (Tet-on shOFD1, 100 ng/mL doxycycline)

IC50 cell viability [1] [µM]	IC50 cell viability [2] [µM]	Structure (SMILES)
3.68	3.47	Cc1ccccc1C(=O)Nc1ccc(C(=O)N2CCCC(O)c3cc(Cl)ccc32)c(C)c1 (stereo not given) [S2593]
28.1	29.2	Cn1cnc([N+](=O)[O-])c1Sc1ncnc2[nH]cnc12 [S1721]
15.7	15.5	Nc1cccc2c1C(=O)N(C1CCC(=O)NC1=O)C2=O (stereo not given) [S1567]
9.08	8.71	CC#C[C@]1(O)CC[C@H]2[C@@H]3CCC4=CC(=O)CCC4=C3[C@@H](c3ccc(N(C)C)cc3)C[C@@]21C [S2606]
41.1	37.6	FC(F)(F)c1ccc(/C=C/c2nc(COc3ccc(CCCCn4ccnn4)cc3)co2)cc1 [S2216]
17.9	17.7	O=c1sn(-c2cccc3ccccc23)c(=O)n1Cc1ccccc1 [S2823]
8.62	7.63	CN(CCOc1ccc(CC2SC(=O)NC2=O)cc1)c1ccccn1 (stereo not given) [S2556]
8.25	7.73	Nc1ccc(C(=O)O)c(O)c1 [S4073]
23	22.1	CC1(C)O[C@@H]2C[C@H]3[C@@H]4CCC5=CC(=O)C=C[C@]5(C)[C@@]4(F)[C@@H](O)C[C@]3(C)[C@]2(C(=O)CO)O1 [S1628]
28.8	27.2	OC(CNCC(O)C1CCc2cc(F)ccc2O1)C1CCc2cc(F)ccc2O1 (stereo not given) [S1549]
42	36.7	CC/C(=C(\c1ccccc1)c1ccc(OCCN(C)C)cc1)c1ccccc1 [S1972]
3.36	3.16	Nc1ccn([C@@H]2O[C@H](CO)[C@@H](O)C2(F)F)c(=O)n1 [S1714]
13.5	13.3	Oc1ncnc2[nH]ncc12 [S1630]
4.3	3.52	COCCCOc1cc(C[C@@H](C[C@H](N)[C@@H](O)C[C@H](C(=O)NCC(C)(C)C(N)=O)C(C)C)C(C)C)ccc1OC [S2199]
30.1	29.6	COc1cc2ncnc(Nc3ccc(F)c(Cl)c3)c2cc1NC(=O)/C=C/CN1CCCCC1 [S2727]
11.6	12.1	CS(=O)(=O)OCCCCOS(C)(=O)=O [S1692]
22.7	24.4	CC[C@H](Nc1ncnc2[nH]cnc12)c1nc2cccc(F)c2c(=O)n1-c1ccccc1 [S2226]
23.9	21.9	CC(=O)Nc1cccc(-n2c(=O)n(C3CC3)c(=O)c3c(Nc4ccc(I)cc4F)n(C)c(=O)c(C)c32)c1 [S2673]
11.4	9.5	C=CC(=O)Nc1cc(Nc2nccc(-c3cn(C)c4ccccc34)n2)c(OC)cc1N(C)CCN(C)C [S7297]
1.56	1.3	CCOc1nc2cccc(C(=O)O)c2n1Cc1ccc(-c2ccccc2-c2nnn[nH]2)cc1 [S1578]
3.36	3.39	COc1cccc2c1C(=O)c1c(O)c3c(c(O)c1C2=O)C[C@@](O)(C(C)=O)C[C@@H]3O[C@H]1C[C@H](N)[C@H](O)[C@H](C)O1 [S3035]
43.2	47.2	CCc1c2c(nc3ccc(OC(=O)N4CCC(N5CCCCC5)CC4)cc13)-c1cc3c(c(=O)n1C2)COC(=O)[C@]3(O)CC [S2217]

More lines, now with the values behind:

Structure (SMILES)	IC50 cell viability [1] [µM]	IC50 cell viability [2] [µM]
Nc1nc(Cl)nc2c1ncn2[C@H]1C[C@H](O)[C@@H](CO)O1 [S1199]	55.1	49.9
COc1cc([C@@H]2c3cc4c(cc3[C@@H](O[C@@H]3O[C@@H]5CO[C@@H](C)O[C@H]5[C@H](O)[C@H]3O)[C@H]3COC(=O)[C@H]23)OCO4)cc(OC)c1O [S1225]	2.31	2.03
Cc1cc(Nc2cc(N3CCN(C)CC3)nc(Sc3ccc(NC(=O)C4CC4)cc3)n2)n[nH]1 [S1048]	22.9	22.7
CN(C)c1nc(N(C)C)nc(N(C)C)n1 [S1278]	2.56	2.43
O=C1CCC(N2C(=O)c3ccccc3C2=O)C(=O)N1 (stereo not given) [S1193]	29.9	28.2
CC[C@@]1(O)C(=O)OCc2c1cc1n(c2=O)Cc2cc3c(CN(C)C)c(O)ccc3nc2-1 [S1231]	54.5	49.8
C#Cc1cccc(Nc2ncnc3cc(OC)c(OCCCCCCC(=O)NO)cc23)c1 [S1194]	1.35	1.14
O=P1(N(CCCl)CCCl)NCCCO1 (stereo not given) [S2057]	20.3	18.6
CCC1(c2ccc(N)cc2)CCC(=O)NC1=O (stereo not given) [S1672]	23.6	22.2
CCc1c2c(nc3ccc(OC(=O)N4CCC(N5CCCCC5)CC4)cc13)-c1cc3c(c(=O)n1C2)COC(=O)[C@]3(O)CC [S1198]	24.5	20
CS(=O)(=O)c1ccc(C(=O)Nc2ccc(Cl)c(-c3ccccn3)c2)c(Cl)c1 [S1082]	61.8	69
CNC(=O)c1ccccc1Sc1ccc2c(/C=C/c3ccccn3)n[nH]c2c1 [S1005]	38.7	43.9
CC1(C)CCC(c2ccc(Cl)cc2)=C(CN2CCN(c3ccc(C(=O)NS(=O)(=O)c4ccc(N[C@H](CCN5CCOCC5)CSc5ccccc5)c(S(=O)(=O)C(F)(F)F)c4)cc3)CC2)C1 [S1001]	18.7	19
COc1nc(C)cnc1NS(=O)(=O)c1cccnc1-c1ccc(-c2nnco2)cc1 [S1456]	70.2	64.3
O=C(/C=C/c1cccc(S(=O)(=O)Nc2ccccc2)c1)NO [S1085]	3.67	3.5
O=c1[nH]c(=O)n(C2CCCO2)cc1F (stereo not given) [S1300]	48.4	43.1
CS(=O)(=O)CCNCc1ccc(-c2ccc3ncnc(Nc4ccc(OCc5cccc(F)c5)c(Cl)c4)c3c2)o1 [S1028]	16.8	15
C#Cc1cccc(Nc2ncnc3cc(OCCOC)c(OCCOC)cc23)c1 [S1023]	59.1	65.3
CNC(=O)c1cc(Oc2ccc(NC(=O)Nc3ccc(Cl)c(C(F)(F)F)c3)cc2)ccn1 [S1040]	8.15	7.5

Structure (SMILES)	IC50 cell viability [1] [µM]	IC50 cell viability [2] [µM]
Cc1ccc(C(=O)Nc2ccc(CN3CCN(C)CC3)c(C(F)(F)F)c2)cc1C#Cc1cnc2cccnn12 [S1490]	3.75	3.86
O=C(O)C(=O)O.[NH-][C@@H]1CCCC[C@H]1[NH-].[Pt+2] [S1224]	60.3	57.3
CCCCc1nc2cc(/C=C/C(=O)NO)ccc2n1CCN(CC)CC [S1515]	5.47	5.05
Cc1ccc(F)c(NC(=O)Nc2ccc(-c3cccc4[nH]nc(N)c34)cc2)c1 [S1003]	6.31	6.22
CNCc1ccc(-c2[nH]c3cc(F)cc4c3c2CCNC4=O)cc1 [S1098]	31.8	18.9
C/C(=C\c1csc(C)n1)[C@@H]1C[C@@H]2O[C@]2(C)CCC[C@H](C)[C@H](O)[C@@H](C)C(=O)C(C)(C)[C@@H](O)CC(=O)O1 [S1364]	0.76	0.87
CO[C@H]1C[C@@H]2CC[C@@H](C)[C@@](O)(O2)C(=O)C(=O)N2CCCC[C@H]2C(=O)O[C@H]([C@H](C)C[C@@H]2CC[C@@H](OCCO)[C@H](OC)C2)CC(=O)[C@H](C)/C=C(\C)[C@@H](O)[C@@H](OC)C(=O)[C@H](C)C[C@H](C)/C=C/C=C/C=C/1C [S1120]	2.19	2.81
CN(N=O)C(=O)NC1C(O)OC(CO)C(O)C1O (stereo not given) [S1312]	30.1	30.4
C[C@]1(c2nc3c(C(N)=O)cccc3[nH]2)CCCN1 [S1004]	77	44.1
C[C@]1(O)C[C@@H](c2nc(-c3ccc4ccc(-c5ccccc5)nc4c3)c3c(N)nccn32)C1 [S1091]	48.3	49.9
N#Cc1ccc(C(c2ccc(C#N)cc2)n2cncn2)cc1 [S1235]	12.5	12.4
N#CC[C@H](C1CCCC1)n1cc(-c2ncnc3[nH]ccc23)cn1 [S1378]	70.3	68.4
CC[C@]1(O)C[C@H]2CN(CCc3c([nH]c4ccccc34)[C@@](C(=O)OC)(c3cc4c(cc3OC)N(C=O)[C@H]3[C@@](O)(C(=O)OC)[C@H](OC(C)=O)[C@]5(CC)C=CCN6CC[C@]43[C@@H]65)C2)C1 [S1241]	20.9	21.3
Cn1cnc2c(F)c(Nc3ccc(Br)cc3Cl)c(C(=O)NOCCO)cc21 [S1008]	1.66	1.44
C[C@@H](Oc1cc(-c2cnn(C3CCNCC3)c2)cnc1N)c1c(Cl)ccc(F)c1Cl [S1068]	1.73	1.39
C[C@]12CC[C@@H]3c4ccc(O)cc4C[C@@H](CCCCCCCCC[S+]([O-])CCCC(F)(F)C(F)(F)F)[C@H]3[C@@H]1CC[C@@H]2O (stereo not given in full) [S1191]	25.6	24.5
O=C(O)CCCc1ccc(N(CCCl)CCCl)cc1 [S4288]	21.7	19.3
Cc1ccc(-c2cc(C(F)(F)F)nn2-c2ccc(S(N)(=O)=O)cc2)cc1 [S1261]	25.2	24.3
Cn1c(CCCC(=O)O)nc2cc(N(CCCl)CCCl)ccc21 [S1212]	15.8	17
